In paper PMC6992361 (Molecular cancer therapeutics, 2019):

Assays:
[1] = tested on: monolayer of endothelial cells; experiment: Transendothelial electrical impedance assay; type: cell-based; conditions: S1P at 10 nM
[2] = tested on: 786-O RCC tumor xenograft; type: in vivo; conditions: 786-O xenograft; sunitinib 50 mg/kg, Ex82 30mg/kg daily by gavage
[3] = tested on: 786-O RCC tumor xenograft; experiment: Arterial spin labeled MRI of tumor blood flow; type: in vivo, mouse; conditions: day 26 +/- 4 days
[4] = tested on: 786-O RCC tumor xenograft; experiment: Multiplexed immunohistochemistry analysis of tumors; type: in vivo, mouse; conditions: 786-O xenograft tumors

Structure (SMILES)	electrical impedance of endothelial monolayer [1]	tumor growth [2]	tumor blood flow (ASL MRI) [3]	S1P1 expression in tumors [4]	percent area of TUNEL [4] [%]	percent area of tumor vessels (CD34) [4] [%]
CCCCCCCCCCCCC/C=C/[C@@H](O)[C@@H](N)COP(=O)(O)O [S1P, sphingosine-1-phosphate]	strongly increases electrical impedance	–	–	–	–	–
CCN(CC)CCNC(=O)c1c(C)[nH]c(/C=C2\C(=O)Nc3ccc(F)cc32)c1C [sunitinib]	–	slowed tumor growth	lower tumor blood flow than vehicle	significantly reduced	10.9	7.2
